Measurements as given in US11034692B1 (Genentech, Inc., priority 2017, dated 2021).
Where two headings read alike, the source gives them in different places.

Biological target: HPK1
Experiment: HPK1 Lantha Binding Assay ("Lanth")
Protocol: HPK1 Lantha Binding Assay (“Lanth”)
The compounds to be tested were diluted by preparing 12.5 uL/well of 5 mM compound (100×) in columns 2 and 13 and 10 ul/well of DMSO in columns 3-12, 14-23, and wells A1-H1 and I24-P24 of the compound plate using a Bravo liquid handling platform. For the reference compound, the top concentration was 1 mM. To the plate was added 10 ul 2 mM staurosporine in wells J1-P1 and A24-H24. A 11 point 5-fold compound serial dilution was performed using the Bravo liquid handling platform. From the plate were transferred 2.5 ul of the solutions from column 2 and column 13 to the 10 ul of DMSO in columns 3 and 14 & so on. The compound plate was centrifuged at 2500 rpm for 1 min. From the compound plate was transferred 80 nl of the compounds into an assay plate using the Echo liquid handler system. One compound plate makes two assay plates. Each assay plate is sealed and stored in an N2 cabinet.
The following assay concentrations and times were used: 2 nM HPK1, 2 nM Eu-Anti-GST Ab, and 15 nM Tracer222, with 60 min incubation time.
III. HPK Lantha Binding Assay:
For the binding assay, 4 ul 2×HPK1 and Eu-anti-GST antibody were added to each well of the assay plate using a Multidrop reagent dispenser. The solutions were incubated in a 23 C incubator for 1 h. To each well of the assay plate was added 4 ul 2× Tracer-222 using a Multidrop reagent dispenser. The solutions were again incubated in a 23 C incubator for 1 h. The results of the assay were read using an Envision plate reader with the following parameters: TR_FRET, 340ex/615 and 665em; 100 usec Delay; and 200 usec integration.
Compound Ki was analyzed using Morrison ki fit model in XL-fit • a. fit=(1−((((E+x)+(Ki*(1+(S/Kd))))−(((((E+x)+(Ki*(1+(S/Kd))))[…])−((4*E)*x))^0.5))/(2*E))) • res=(y-fit) • b. Parameters: • E=enzyme concentration • S=Tracer222 concentration, Kd=Tracer222 Kd • All measurements reported using the same units (uM)
Exemplary compounds of Formula I or Ia were tested in the binding assays. The Ki data in Table B1-1 are based on the “Lanth” assay.

[1] = Table B1-1, read-out: HPK1 Ki (μM) (Lanth)
[2] = Table B1-2, read-out: HPK1 Ki, L = Lanth

Ki [1] [nM] | Ki [2] [nM] | Compound
4.41 | – | Cc1cc(-c2ccccc2)ncc1-c1cc2cc(NC(=O)[C@H]3C[C@@H]3CC#N)ncc2c(N)n1 [Compound 335, (1S,2R)—N-[8-amino-6-(4-methyl-6-phenylpyridin-3-yl)-2,7-naphthyridin-3-yl]-2-(cyanomethyl)cyclopropane-1-carboxamide]
40.2 | – | CCc1ccncc1-c1cc2cc(NCc3ccn[nH]3)ncc2c(N)n1 [Compound 105, N6-((1H-pyrazol-5-yl)methyl)-3-(4-ethylpyridin-3-yl)-2,7-naphthyridine-1,6-diamine]
0.73 | – | Cc1ccncc1-c1cc2cc(Nc3cnn(CC(C)(C)O)c3)ncc2c(N)n1 [Compound 260, 1-(4-[[8-amino-6-(4-methylpyridin-3-yl)-2,7-naphthyridin-3-yl]amino]-1H-pyrazol-1-yl)-2-methylpropan-2-ol]
4080 | – | COC(C)(C)C(=O)Nc1cc2cc(-c3cnccc3C)nc(N)c2cn1 [Compound 36, N-(8-amino-6-(4-methylpyridin-3-yl)-2,7-naphthyridin-3-yl)-2-methoxy-2-methylpropanamide]
1.1 | – | COCCN1C[C@@H]2[C@H](C1)[C@H]2C(=O)Nc1cc2cc(-c3cnccc3C)nc(N)c2cn1 [Compound 124, exo-N-[8-amino-6-(4-methyl-3-pyridyl)-2,7-naphthyridin-3-yl]-3-(2-methoxyethyl)-3-azabicyclo[3.1.0]hexane-6-carboxamide]
1.2 | – | CNC(=O)C(C)(C)n1cc(Nc2cc3cc(-c4cnccc4C)nc(N)c3cn2)cn1 [Compound 182, 2-[4-[[8-amino-6-(4-methyl-3-pyridyl)-2,7-naphthyridin-3-yl]amino]pyrazol-1-yl]-N,2-dimethyl-propanamide]
7.82 | – | Cc1ccncc1-c1cc2cc(NC(=O)[C@H]3CC[C@@H]3C)ncc2c(N)n1 [Compound 320, (1S,2S)—N-(8-amino-6-(4-methylpyridin-3-yl)-2,7-naphthyridin-3-yl)-2-methylcyclobutanecarboxamide]
– | 1.8 | Cc1cccc(F)c1-c1cc2cc(NC(=O)[C@H]3[C@@H](C)[C@@H]3c3cnn(C)c3)ncc2c(N)n1 [Compound 355, (1S,2S,3S)—N-[8-amino-6-(2-fluoro-6-methylphenyl)-2,7-naphthyridin-3-yl]-2-methyl-3-(1-methyl-1H-pyrazol-4-yl)cyclopropane-1-carboxamide]
1.37 | – | N#C[C@@H]1C[C@H]1C(=O)Nc1cc2cc(-c3cnccc3-c3cc[nH]n3)nc(N)c2cn1 [Compound 243, (1R,2R)—N-(6-(4-(1H-pyrazol-3-yl)pyridin-3-yl)-8-amino-2,7-naphthyridin-3-yl)-2-cyanocyclopropanecarboxamide]
0.134 | – | Cc1ccncc1-c1cc2cc(Nc3ccc(CS(N)(=O)=O)cc3)ncc2c(N)n1 [Compound 264, (4-[[8-Amino-6-(4-methylpyridin-3-yl)-2,7-naphthyridin-3-yl]amino]phenyl)methanesulfonamide]
13.1 | – | Cc1ccncc1-c1cc2cc(NC(=O)[C@H]3C[C@@]34CCNC(=O)C4)ncc2c(N)n1 [Compound 314, (1S,3S)—N-[8-amino-6-(4-methylpyridin-3-yl)-2,7-naphthyridin-3-yl]-5-oxo-6-azaspiro[2.5]octane-1-carboxamide]
47 | – | COC(C)(C)[C@H]1C[C@@H]1C(=O)Nc1cc2cc(-c3cnccc3C)nc(N)c2cn1 [Compound 240, (1S,2S)—N-[8-amino-6-(4-methylpyridin-3-yl)-2,7-naphthyridin-3-yl]-2-(2-methoxypropan-2-yl)cyclopropane-1-carboxamide]
345 | – | Cc1ccncc1-c1cc2cc(NCC(F)F)ncc2c(N)n1 [Compound 338, N6-(2,2-difluoroethyl)-3-(4-methylpyridin-3-yl)-2,7-naphthyridine-1,6-diamine]
3.22 | – | CCc1ccncc1-c1cc2cc(NC(=O)C3CCC3)ncc2c(N)n1 [Compound 20, N-[8-amino-6-(4-ethyl-3-pyridyl)-2,7-naphthyridin-3-yl]cyclobutanecarboxamide]
3.56 | – | N#C[C@H]1C[C@@H]1C(=O)Nc1cc2cc(-c3cnccc3-c3cc[nH]n3)nc(N)c2cn1 [Compound 244, (1S,2S)—N-(6-(4-(1H-pyrazol-3-yl)pyridin-3-yl)-8-amino-2,7-naphthyridin-3-yl)-2-cyanocyclopropanecarboxamide]
0.3 | – | CCc1ccncc1-c1cc2cc(Nc3cc(C)ncn3)ncc2c(N)n1 [Compound 80, 3-(4-Ethylpyridin-3-yl)-N6-(6-methylpyrimidin-4-yl)-[2,7]naphthyridine-1,6-diamine]
14 | – | CCc1ccncc1-c1cc2cc(NC(=O)CCC(N)=O)ncc2c(N)n1 [Compound 29, N′-[8-amino-6-(4-ethyl-3-pyridyl)-2,7-naphthyridin-3-yl]butanediamide]

Second part, the compound before the results:

Compound | Ki [1] [nM] | Ki [2] [nM]
Cc1ccncc1-c1nc(N)c2cnc(NC(=O)[C@H]3C[C@@H]3CC#N)cc2c1Cl [Compound 270, (1S,2R)—N-[8-amino-5-chloro-6-(4-methylpyridin-3-yl)-2,7-naphthyridin-3-yl]-2-(cyanomethyl)cyclopropane-1-carboxamide] | 0.116 | –
Cc1ccncc1-c1nc(N)c2cnc(NC(=O)[C@H]3C[C@@H]3CC#N)cc2c1C1CC1 [Compound 317, (1S,2R)—N-(8-amino-5-cyclopropyl-6-(4-methylpyridin-3-yl)-2,7-naphthyridin-3-yl)-2-(cyanomethyl)cyclopropanecarboxamide] | 0.02 | –
CCc1ccncc1-c1cc2cc(Nc3cnn(CCO)c3)ncc2c(N)n1 [Compound 168, 2-[4-[[8-amino-6-(4-ethyl-3-pyridyl)-2,7-naphthyridin-3-yl]amino]pyrazol-1-yl]ethanol] | 2 | –
Cc1ccncc1-c1cc2cc(NC(=O)[C@H]3[C@@H]4CC(NS(C)(=O)=O)C[C@@H]43)ncc2c(N)n1 (stereo partly drawn) [Compound 412, N-(8-amino-6-(4-methylpyridin-3-yl)-2,7-naphthyridin-3-yl)-3-(methylsulfonamido)bicyclo[3.1.0]hexane-6-carboxamide] | – | 96
Cn1cc([C@@H]2C[C@H]2C(=O)Nc2cc3c(Cl)c(-c4cnccc4CCO)nc(N)c3cn2)cn1 [Compound 333, (1R,2R)—N-(8-amino-5-chloro-6-(4-(2-hydroxyethyl)pyridin-3-yl)-2,7-naphthyridin-3-yl)-2-(1-methyl-1H-pyrazol-4-yl)cyclopropanecarboxamide] | 0.432 | –
Cc1ccncc1-c1cc2cc(NC(=O)[C@@H]3CC[C@H]3C)ncc2c(N)n1 [Compound 322, (1R,2R)—N-(8-amino-6-(4-methylpyridin-3-yl)-2,7-naphthyridin-3-yl)-2-methylcyclobutanecarboxamide] | 14.8 | –
Nc1nc(-c2cnccc2CCO)cc2cc(NC(=O)[C@H]3C[C@@H]3c3cccnc3)ncc12 [Compound 254, (1S,2S)—N-[8-amino-6-[4-(2-hydroxyethyl)pyridin-3-yl]-2,7-naphthyridin-3-yl]-2-(pyridin-3-yl)cyclopropane-1-carboxamide] | 4.55 | –
Cc1ccncc1-c1cc2cc(Nc3cnn(C(C)(C)C(=O)N(C)C)c3)ncc2c(N)n1 [Compound 183, 2-[4-[[8-amino-6-(4-methyl-3-pyridyl)-2,7-naphthyridin-3-yl]amino]pyrazol-1-yl]-N,N,2-trimethyl-propanamide] | 0.98 | –
Cc1ccncc1-c1cc2cc(NC(=O)[C@@H]3C[C@@]34CCNC(=O)C4)ncc2c(N)n1 [Compound 312, (1R,3S)—N-[8-amino-6-(4-methylpyridin-3-yl)-2,7-naphthyridin-3-yl]-5-oxo-6-azaspiro[2.5]octane-1-carboxamide] | 5.77 | –
COC(C)(C)[C@@H]1C[C@H]1C(=O)Nc1cc2cc(-c3cnccc3C)nc(N)c2cn1 [Compound 239, (1R,2R)—N-[8-amino-6-(4-methylpyridin-3-yl)-2,7-naphthyridin-3-yl]-2-(2-methoxypropan-2-yl)cyclopropane-1-carboxamide] | 5.28 | –
CNC(=O)Nc1cc2cc(-c3cnn(C)c3)nc(N)c2cn1 [Compound 9, 1-(8-amino-6-(1-methyl-1H-pyrazol-4-yl)-2,7-naphthyridin-3-yl)-3-methylurea] | 7.16 | –
N#C[C@@H]1C[C@H]1C(=O)Nc1cc2cc(-c3cnccc3-c3cn[nH]c3)nc(N)c2cn1 [Compound 235, (1R,2R)—N-(6-(4-(1H-pyrazol-4-yl)pyridin-3-yl)-8-amino-2,7-naphthyridin-3-yl)-2-cyanocyclopropanecarboxamide] | 0.706 | –
Cc1ccncc1-c1cc2cc(NC(=O)[C@@H]3C[C@]34CCNC(=O)C4)ncc2c(N)n1 [Compound 315, (1R,3R)—N-[8-amino-6-(4-methylpyridin-3-yl)-2,7-naphthyridin-3-yl]-5-oxo-6-azaspiro[2.5]octane-1-carboxamide] | 12.2 | –
